{"source": "patent US7351399B2", "about": "“Prodrugs for phosphorus-containing compounds” (Metabasis Therapeutics, Inc., priority 1998, dated 2008)", "key": {"[1]": {"experiment": "Liver ara-ATP and ara-hypoxanthine generation after intravenous administration (Example O)", "format": "in vivo, rat", "settings": "rat; for ara-hypoxanthine (araH) in plasma / blood: 30.1 10 and 3 mg/kg, ara-AMP 10 mg/kg", "experimental": "The temporal profile of ara-hypoxanthine and ara-ATP generation following intravenous administration of 30.1 and free ara-AMP was compared in the rat. Method: 30.1 and ara-AMP (Sigma) were administered to normal, fasted rats intravenously (in saline) via tail vein catheters. At appropriate time points following drug a administration, animals were lightly anesthetized with halothane. The peritoneal cavity was then opened and a blood sample was obtained from the abdominal vena cava and the liver freeze-clamped and excised. The blood samples were heparinized and plasma was prepared. Plasma samples (100 μL) were mixed with 4 N perchloric acid (40 μL), vortexed, and then clarified by centrifugation. […] The eluent was monitored by UV absorbance at 254 nm. Livers were immediately homogenized in 3 volumes of 10% perchloric acid (w/w), and the extracts clarified by centrifugation at 2500×g (5 minutes). The resulting supernatants were removed and neutralized with 0.3 volumes of 3M KOH/3M KHCO3. […] Renal excretion of araH following i.v. administration of 30.1 or ara-AMP was determined as described in Example Q."}, "[2]": {"system": "normal C57 mice", "settings": "day 22, 3 hours after final dosing"}, "[3]": {"settings": "intravenous; human patients; cited from earlier work"}}, "note": "Read-outs that look alike come from different tables or passages of the source.", "data": [{"smiles": "Nc1ncnc2c1ncn2[C@@H]1O[C@H](COP(=O)(O)O)[C@@H](O)[C@@H]1O", "note": "[araAMP, reference compound]", "values": [{"measurement": "ara-hypoxanthine (araH) in plasma / blood", "setting": "[1]; i.v., listed as AraAMP", "value": "rapidly and nearly completely converted to araH"}, {"measurement": "ara-hypoxanthine (araH) in plasma / blood", "setting": "[1]; i.v., listed as ara-AMP", "value": "μmolar levels"}, {"measurement": "dose excreted in the form of ara-hypoxanthine in urine", "setting": "[1]; i.v., ara-AMP 10 mg/kg equivalent dose", "value": 19.2, "unit": "%"}, {"measurement": "plasma half-life relative to 30.1", "setting": "[1]; compound not detectable in plasma", "value": "considerably shorter"}, {"measurement": "araATP, nmoles/g liver", "setting": "[2]; Dose 20 mg/kg/d", "value": "2.5 ± 0.2", "unit": "nmoles/g liver"}, {"measurement": "araATP, nmoles/g liver", "setting": "[2]; Dose 200 mg/kg/d", "value": "19.1 ± 4.0", "unit": "nmoles/g liver"}, {"measurement": "ara-AMP in plasma", "setting": "[3]", "value": "not detected in plasma"}]}]}
